According to US20050261365A1, “Transthyretin stabilization” (The Scripps Research Institute, priority 2004, published 2005):
“And” between values parts separate entries of the source, which are not always exact repeats. Equal values may be shown once.

What was measured:
[1] = target: T1, TTR in human blood plasma (Homo sapiens, UniProt P02766); assay: plasma TTR binding selectivity, antibody capture method; details: inhibitor 10.8 μM, 24 h, 37° C.
T1 construct: from tissue; host or cells: human blood plasma
Method: Inhibitor binding selectivity to TTR in human blood plasma was assessed using a previously established antibody capture method (Purkey, H. E.; et al. Proc. Natl. Acad. Sci. USA 2001, 98, 5566-5571). In this evaluation, inhibitors (10.8 μM, ˜2-3× the natural concentration of TTR) are incubated in human blood plasma for 24 h at 37° C. Quenched sepharose resin is then added to the plasma to remove any small molecules that would bind to the resin as opposed to TTR. TTR and any TTR-bound small molecule is then immunocaptured using a polyclonal TTR antibody covalently attached to sepharose resin. After washing the resin (5×10 min washes), the antibody-TTR complex is dissociated at high pH and analyzed by RP-HPLC. The relative stoichiometry between TTR and inhibitor is then calculated from their HPLC peak areas using standard curves.
The procedures used for bacterial expression of TTR (Lai, Z.; et al. Biochemistry 1996, 35, 6470-6482), the stagnant fibril formation assay (Colon, W.; Kelly, J. W. Biochemistry 1992, 31, 8654-8660; Lai, Z.; et al. Biochemistry 1996, 35, 6470-6482), the blood plasma binding selectivity assay (Purkey, H. E.; et al. Proc. Natl. Acad. Sci. USA 2001, 98, 5566-5571), and analytical ultracentrifugation (Lashuel, H. A.; et al. Biochemistry 1998, 37, 17851-17864) have all been described in detail previously.

WT-TTR [2] = target: T2, WT-TTR (Homo sapiens, UniProt P02766); details: inhibitor 7.2 μM, WT-TTR 3.6 μM, pH 4.4, 72 h; cited from earlier work
T2 construct: made in house

WT-TTR [3] = target: T2, WT-TTR; assay: time course analysis of WT-TTR fibril formation inhibition; type: biochemical; details: inhibitor 7.2 and 3.6 μM, WT-TTR 3.6 μM, pH 4.4, turbidity at 500 nm
Method: Time course analysis of WT-TTR fibril formation inhibition by compounds 25, 47, and 64. Compounds 25, 47, and 64 were dissolved in DMSO to provide 7.2 mM primary stock solutions (10× stocks), from which 5- and 10-fold DMSO dilutions yielded 1.44 mM (2×) and 0.72 mM (1×) secondary stock solutions, respectively. 495 μL of 0.4 mg/mL (7.2 μM) WT-TTR solution (10 mM sodium phosphate, 100 mM KCl, and 1 mM EDTA, pH 7.2), and 5 μL of either the 1.44 or 0.72 mM inhibitor secondary stock solutions were added to disposable UV cuvettes, vortexed briefly, then incubated for 30 min at 25° C. The pH was then adjusted to 4.4 with addition of 500 μL of acidic buffer (100 mM acetate, 100 mM KCl, 1 mM EDTA, pH 4.2), and the final 1 mL solutions were vortexed again and incubated in the dark at 37° C. without agitation. At 0, 4, 8, 12, 25, 49, 74, 100, 122, 145, and 169 h time points after acidification, the solutions were vortexed and the turbidity at 500 nm was measured. Control samples containing 5 μL of pure DMSO were prepared and analyzed as above for comparison. Small molecule and TTR control samples were prepared in groups of 10 to prevent disturbance of the cuvettes during incubation. Samples were discarded after their turbidities were measured.
FIG. 10 is a plot of the timecourse analysis of WT-TTR (3.6 μM) fibril formation mediated by partial acid denaturation in the absence (▴) and presence of 7.2 μM (⋄) and 3.6 μM (◯) inhibitors 25, 47, and 64, as measured by turbidity at 500 nm (see color scheme within Figure to differentiate inhibitors). It is hard to discern which compound is most efficacious in the black and white plot.

WT-TTR tetramer = target: T3, WT-TTR tetramer (Homo sapiens, UniProt P02766); assay: time course analysis of WT-TTR tetramer dissociation by linked monomer unfolding in urea; type: biochemical
T3 construct: made in house
From the text: The ability of these inhibitors to impose kinetic stability on tetrameric TTR is best evaluated by assessing the rate of TTR tetramer dissociation (Hammarstrom, P.; et al. Science 2003, 299, 713-716; Hammarstrom, P.; et al. Proc. Natl. Acad. Sci. USA 2002, 99, 16427-16432). Under acidic conditions tetramer dissociation leads to amyloidogenesis, whereas in the presence of chaotropes (6M urea), tetramer dissociation leads to monomer unfolding. The influence of inhibitors 25, 47 and 64, representing the three structural classes of dibenzofuran-based inhibitors, on the rates of tetramer dissociation under acid- and urea-mediated denaturing conditions was probed. […] The rate of TTR tetramer dissociation in 6M urea is easily monitored by linking the slow quaternary structural changes to rapid tertiary structural changes that are easily monitored by spectroscopic methods (Hammarstrom, P.; et al. Proc. Natl. Acad. Sci. USA 2002, 99, 16427-16432).
Time course analysis of WT-TTR tetramer dissociation inhibition by compounds 25, 47, and 64 evaluated by linked-monomer unfolding in urea. Compounds 25, 47, and 64 were dissolved in DMSO to provide 10 mM primary stock solutions, from which 10-fold EtOH dilutions yielded 1 mM secondary stock solutions. 200 μL of 1.0 mg/mL (18 μM) WT-TTR solution (50 mM sodium phosphate, 100 mM KCl, and 1 mM EDTA, pH 7.2), and either 7.2 or 3.6 μL (2× and 1×, respectively) of 1 mM inhibitor secondary stock solutions were added to 2 mL eppendorf tubes, vortexed briefly, and incubated for 15 min at 25° C. 100 μL of the TTR•inhibitor solutions were added to 900 μL of urea buffer (6.67 M urea, 50 mM sodium phosphate, 100 mM KCl, 1 mM EDTA, pH 7.2), and the final 1 mL solutions were vortexed again and incubated in the dark at 25° C. without agitation. At 0, 4, 11, 24, 49, 73, 97, 122, 146, and 170 h time points after mixing with urea, the circular dichroism spectra were measured between […], with scanning every 0.5 nm and averaging for 5 s. […] Control samples containing 7.2 μL of 10% DMSO in EtOH were prepared and analyzed as above for comparison. […] TTR tetramer dissociation is linked to the rapid (˜500,000× faster) monomer denaturation as measured through this β-sheet loss (Hammarstrom, P.; et al. Proc. Natl. Acad. Sci. USA 2002, 99, 16427-16432).
FIG. 11 is a plot of the timecourse analysis of WT-TTR (3.6 μM) tetramer dissociation (6.0 M urea) in the absence (▴) and presence of 7.2 μM (⋄) and 3.6 μM (◯) concentrations of inhibitors 25, 47, and 64 (see color scheme within Figure to differentiate inhibitors). Slow tetramer dissociation is not detectable by far-UV CD spectroscopy, but this process is linked to rapid (˜500,000× faster) monomer denaturation as monitored by loss of β-sheet content easily followed by circular dichroism spectroscopy. […]

[4] = precipitation of small molecules under acid-mediated amyloidogenic conditions in the absence of TTR; type: physicochemical; details: 3.6 μM, pH 4.4, 37° C., 72 h
Method: TTR amyloid inhibition efficacy was probed using a stagnant fibril formation assay described previously, wherein partial denaturation was triggered by acidification (pH 4.4, 37° C.) (Colon, W.; Kelly, J. W. Biochemistry 1992, 31, 8654-8660). Briefly, a test compound (7.2 or 3.6 μM) is incubated with TTR (3.6 μM) for 30 min in pH 7 buffer. Amyloidogenesis is then initiated by lowering to pH 4.4, where maximal fibril formation is observed with WT-TTR after 72 h (37° C.). […] From experience we know that excellent inhibitors allow <10% fibril formation at a small molecule concentration of 7.2 μM and <40% fibril formation at a concentration equal to that of WT-TTR (3.6 μM) (Hammarstrom, P.; et al. Science 2003, 299, 713-716; Klabunde, T.; et al. Nature Struct. Biol. 2000, 7, 312-321; Razavi, H.; et al. Angew Chem 2003, 42, 2758-2761; Miroy, G. J.; et al. Proc. Natl. Acad. Sci. USA 1996, 93, 15051-15056; Peterson, S. A.; et al. Proc. Natl. Acad. Sci. USA 1998, 95, 12956-12960; Baures, P. W.; et al. Bioorg. Med. Chem. 1998, 6, 1389-1401; Baures, P. W.; et al. Bioorg. Med. Chem. 1999, 7, 1339-1347; Petrassi, H. M.; et al. J. Am. Chem. Soc. 2000, 122, 2178-2192; McCammon, M. G.; et al. Structure 2002, 10, 851-863; Oza, V. B.; et al. J. Med. Chem. 2002, 45, 321-332; Saccheftini, J. C.; et al. Nature Rev. Drug Disc. 2002, 1, 267-275; Green, N. S.; et al. J. Am. Chem. Soc. 2003, 125, 13404-13414; Adamski-Werner, S. L.; et al. J. Med. Chem. 2004, 47, 355-374; Miller Sean, R.; et al. Lab. Inv. 2004, 84, 545-552). […] Therefore, when both the ligand and TTR are at equal concentrations, a population of TTR•I, TTR•I2 and unliganded TTR is observed, dictated by the dissociation constants. It is now established by other studies that inhibitor occupancy of only one of the two TTR binding sites is sufficient to stabilize the entire tetramer against amyloidogenesis (Wiseman, R. L.; et al. J. Am. Chem. Soc. 2005, in press). This is further supported by the observation herein that twenty-six of these dibenzofurans are excellent TTR amyloidogenesis inhibitors (<40% fibril formation) at a concentration equal to that of TTR (3.6 μM each, FIG. 3).

TTR = target: T4, TTR (Homo sapiens, UniProt P02766); assay: analytical ultracentrifugation of TTR quaternary structure under amyloidogenic conditions; details: 27 at 7.2 μM, TTR 3.6 μM, 72 h at pH 4.4, 37° C.; tetramer expected 55.0 kDa
T4 construct: made in house
Method: To ensure that these C1-arylated dibenzofurans inhibit TTR fibril formation by native state stabilization (i.e. tetramer stabilization), we studied the TTR quaternary structure by analytical ultracentrifugation after a preincubation period of 72 h under amyloidogenic conditions (pH 4.4, 37° C.). […] In the absence of 27, TTR aggregated into very high molecular weight oligomers that sedimented rapidly in the ultracentrifugation experiment (data not shown). […]
(§1) FIG. 8 is a plot of the absorbance at 280 nm versus distance from the center in the sedimentation velocity study on TTR ([…]) after being preincubated with 27 ([…]) and after another incubation period where the pH was dropped to 4.4 for 72 h, a time frame that results in maximal amyloid formation in the absence of inhibitor. […]
as §1, with “FIG. 9” for “FIG. 8”, “the equilibrium ultracentrifugation studies” for “the sedimentation velocity study”

| SMILES | binding selectivity to TTR in human blood plasma [1] | decrease of the extent of WT-TTR amyloid formation (WT-TTR [2]) [%] | rate of TTR amyloidogenesis mediated by partial acidification relative to control (WT-TTR [3]) | order of effect on tetramer dissociation at the end of the time course (WT-TTR tetramer; after 169 hours, 6.0 M urea, FIG. 11) | rate of TTR tetramer dissociation in 6M urea (WT-TTR tetramer; inhibitor 7.2 and 3.6 μM, TTR 3.6 μM, far-UV CD) | precipitation in the absence of TTR [4] | hydrodynamic molecular weight of TTR by equilibrium analytical ultracentrifugation (TTR) | hydrodynamic molecular weight of TTR by sedimentation velocity (TTR) |
| --- | --- | --- | --- | --- | --- | --- | --- | --- |
| O=C(O)c1cccc2c1oc1c(C(=O)O)cccc12 [Compound 1, dibenzofuran-4,6-dicarboxylic acid, reference compound] | no measurable binding selectivity | 90 | – | – | – | – | – | – |
| O=C(O)c1cccc2c1oc1c(C(=O)O)ccc(Nc3ccccc3C(F)(F)F)c12 [Compound 25] | – | – | dramatically slowed in a dose-dependent fashion | most effective in dissociating tetramers | markedly slowed in a dose-dependent fashion | no measurable precipitation | – | – |
| O=C(O)c1cccc2c1oc1c(C(=O)O)ccc(Nc3cccc(Cl)c3)c12 [Compound 27] | – | – | – | – | – | no measurable precipitation | 55.1±0.4 kDa and 55.0±0.2 kDa | 57.1±0.3 kDa and 57.1±0.2 kDa |
